Source: patent publication US20130023555A1, “KINASE INHIBITOR WITH IMPROVED SOLUBILITY PROFILE” (Abbott Laboratories, priority 2011, published 2013)
Converted amounts (≈) assume the structure as drawn.

Key:
CLND Solubility Assay = type: physicochemical
Method: Chemiluminescent nitrogen detection (CLND) method oxidized the analyte to nitrogen oxide that reacted with ozone to provide a photon of light and was a measure of how much compound was in solution. Compounds must contain nitrogens for this experiment. Nitrogen impurities present in the compound will cause falsely high results. • 1. Compound concentration tested was 35 μM in 10 mM phosphate buffer, 7.2. • 2. Compounds were tested in triplicate. • 3. Compound concentration was determined by comparing readings to a caffeine standard curve. One standard curve was run before and after every test plate. For 3 test plates, four standard curves were generated.
Experimental Procedure: • 1. 5 μl of 5 mM test compound in DMSO was added to three adjacent wells in a plate. • 2. 695 μl of 10 mM phosphate buffer, pH 7.2, was added to each well. • 3. The plates were sealed. • 4. The plates were allowed to sonicate for 1 hour. • 5. The plates were shook on a plate orbital shaker for up to 6 hours. • 6. The plates were spinned at 5000 rpm (6000×G) overnight. • 7. Standard curves were prepared by adding 5 μl of stock solutions to wells according to Caffeine Concentrations for Standard Curve table below. • 8. Buffer (10 mM phosphate buffer, pH 7.2, 695 μl) was added. • 9. The plates were sealed. • 10. The plates were loaded onto a TOC/CLND. • 11. The results were analyzed after the run was completed.
The solubility was determined by comparing the reading generated by analysis of the sample to the standard curve. The value was then divided by the number of nitrogens contained in the compound. Corrections for impurities during the synthesis were included in the number of nitrogens. The resulting value was the reported solubility.

KDR = molecular target: T1, KDR (Homo sapiens, UniProt P35968); experiment: HTRF in vitro kinase assay, KDR; type: biochemical; settings: 1 mM ATP
T1 construct: KDR 789- 1354; His6 (N)
Method: (§1) To determine the activity of the various kinases, a homogenous time-resolved fluorescence (HTRF) in vitro kinase assay was used. (Mathis, G., HTRF(R) Technology. J Biomol Screen, 1999. 4(6): p. 309-314; Alfred J. Kolb, Paul V. Kaplita, David J. Hayes, Young-Whan Park, Christine Pernell, John S. Major and Gerard Mathis, Drug Discovery Today, 1998, 3, 333-342.)
(§2) For example for KDR, cKIT, FLT1, CSF1R and FTL3, purified enzyme was mixed with 0.5 μM N-biotinylated substrate (Biotin-Ahx-[…]-amide (SEQ. ID. 1)), various concentrations of inhibitor in reaction buffer (50 mM HEPES, pH 7.1, 10 mM MgCl2, 2 mM MnCl2, 0.1% BSA and 1 mM DTT, 40 μL final volume), ATP (1 mM final conc.) in a black 384-well plate. […] The quenched reaction was allowed to stand at room temperature for 3 hours and was then read in a time-resolved fluorescence detector (InVision, Perkin-Elmer) at 620 nm and 665 nm sequentially with excitation. The ratio between the signal of 620 nm and 665 nm was used in the calculation of the IC50.

FLT1 = molecular target: T2, FLT1 (Homo sapiens, UniProt P17948); experiment: HTRF in vitro kinase assay, FLT1; type: biochemical; settings: 1 mM ATP
T2 construct: His6
T2 sequence (P17948 786-1338 limits assumed): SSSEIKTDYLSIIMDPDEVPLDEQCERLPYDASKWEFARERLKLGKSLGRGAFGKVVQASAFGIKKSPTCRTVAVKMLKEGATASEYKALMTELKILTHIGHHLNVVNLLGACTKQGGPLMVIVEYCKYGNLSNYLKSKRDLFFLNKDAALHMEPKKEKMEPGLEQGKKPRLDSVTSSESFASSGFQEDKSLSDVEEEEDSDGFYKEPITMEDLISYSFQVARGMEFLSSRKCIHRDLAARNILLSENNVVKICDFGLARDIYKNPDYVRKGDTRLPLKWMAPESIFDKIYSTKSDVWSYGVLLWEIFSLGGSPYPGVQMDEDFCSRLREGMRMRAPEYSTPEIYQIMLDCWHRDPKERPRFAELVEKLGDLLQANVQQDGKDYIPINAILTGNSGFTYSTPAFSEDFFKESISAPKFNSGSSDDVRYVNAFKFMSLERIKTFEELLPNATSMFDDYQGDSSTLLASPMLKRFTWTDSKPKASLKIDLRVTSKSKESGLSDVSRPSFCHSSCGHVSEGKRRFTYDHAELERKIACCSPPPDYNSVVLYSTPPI
Method: as §1, §2

CYP3A4 = molecular target: T3, CYP3A4 (Homo sapiens, UniProt P08684); experiment: CYP 3A4 Assay (Luc, luminescence, human liver microsomes); type: in vitro ADME; settings: human liver microsomes 0.4 mg/mL, substrate LUC-LIPA
T3 construct: The incubations consisted of human liver microsomal protein at 0.4 mg/ml; from tissue; host or cells: human liver microsomes
Method: Each assay was preformed in ½ well plates. Test compounds were examined at six concentrations in DMSO that were serial diluted to: 2, 0.6, 0.2, 0.07, 0.02, and 0.007 mM (from left to right) and at 100×; 0.5 ul of these dilutions were added to two empty assay plates (resulting in final assay concentrations of 20, 6, 2, 0.7, 0.2, and 0.07 uM. The control and vehicle were added to the plate at 100× with the same dilution scheme.
The incubations consisted of human liver microsomal protein at 0.4 mg/ml in 100 mM KPO4 buffer, 125 uM NADPH and Regeneration mix in phosphate buffer at pH 7.4.
CYP3A4 requires a pre-incubation using the following recipe:
• CYP3A4—5 μM LUC-LIPA in 100 mM phosphate buffer pH 7.4 • Assay Procedure for CYP3A4: • 1. 40 uL of the Pre-incubation Mixture was added to all wells of the assay plates. • 2. Plates were pre-incubated for 10 minutes at 37° C., with shaking or rocking. (No pre-read is necessary for the luminescence assays CYP2C9 and CYP3A4). • 3. 10 μL of Substrate Solution was added to all wells of the assay plates. • 4. Plates were incubated for an additional 25 minutes at 37° C., with shaking or rocking. • 5. added 50 μl of stop/developer from respective kits, and incubated for 20 minutes to 2 hours with shaking at room temperature prior to reading. […]

T1 sequence (P35968 789-1354): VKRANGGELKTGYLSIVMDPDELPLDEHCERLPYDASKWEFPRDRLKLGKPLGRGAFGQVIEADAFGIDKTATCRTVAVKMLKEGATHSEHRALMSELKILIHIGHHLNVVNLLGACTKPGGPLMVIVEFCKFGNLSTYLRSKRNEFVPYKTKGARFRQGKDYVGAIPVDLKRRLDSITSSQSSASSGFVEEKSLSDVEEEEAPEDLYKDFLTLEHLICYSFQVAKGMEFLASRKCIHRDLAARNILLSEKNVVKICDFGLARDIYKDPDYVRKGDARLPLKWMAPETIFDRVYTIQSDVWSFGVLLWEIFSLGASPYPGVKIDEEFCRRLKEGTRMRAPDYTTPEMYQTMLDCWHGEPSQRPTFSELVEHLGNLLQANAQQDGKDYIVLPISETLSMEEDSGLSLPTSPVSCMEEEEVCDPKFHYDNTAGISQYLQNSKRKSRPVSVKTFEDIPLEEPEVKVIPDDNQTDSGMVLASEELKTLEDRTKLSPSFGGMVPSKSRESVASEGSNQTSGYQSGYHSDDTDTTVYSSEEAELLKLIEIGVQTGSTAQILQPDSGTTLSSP
T3 sequence (P08684 whole entry): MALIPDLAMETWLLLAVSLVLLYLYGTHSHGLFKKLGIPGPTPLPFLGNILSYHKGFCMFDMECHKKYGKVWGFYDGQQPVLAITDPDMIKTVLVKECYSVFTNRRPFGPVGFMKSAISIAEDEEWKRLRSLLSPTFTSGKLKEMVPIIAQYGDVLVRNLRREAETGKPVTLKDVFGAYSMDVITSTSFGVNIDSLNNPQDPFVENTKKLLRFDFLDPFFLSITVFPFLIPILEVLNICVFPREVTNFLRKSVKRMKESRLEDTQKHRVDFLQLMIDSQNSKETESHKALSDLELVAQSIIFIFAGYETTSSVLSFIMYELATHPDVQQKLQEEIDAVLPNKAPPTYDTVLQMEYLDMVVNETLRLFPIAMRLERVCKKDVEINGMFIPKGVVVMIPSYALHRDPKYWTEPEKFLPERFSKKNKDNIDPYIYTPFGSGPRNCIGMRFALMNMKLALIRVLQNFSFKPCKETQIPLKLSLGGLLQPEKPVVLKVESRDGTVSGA

CNC(=O)c1cnc(N)c2c(-c3ccc(NC(=O)Nc4cccc(C)c4)cc3)csc12 [Example 2, 4-amino-N-methyl-3-(4-{[(3-methylphenyl)carbamoyl]amino}phenyl)thieno[3,2-c]pyridine-7-carboxamide]
solubility (CLND Solubility Assay; aqueous buffer, kinetic from dmso stock, 35 μM compound in 10 mM phosphate buffer, pH 7.2): 6.03 µM (≈ 2.6 µg/mL)
aqueous solubility, in words (CLND Solubility Assay; comment on Table 5): extremely low aqueous solubility
IC50 (KDR): 2 nM
IC50 (FLT1): 2 nM
IC50 (CYP3A4): > 20000 nM
